Assay results taken from PMC13199644, “Optimized Quantitative Bacterial Two-Hybrid (qB2H) for Protein–Protein Interaction Assessment” (Computational and Structural Biotechnology Journal, 2026).
No end group written: not given here.

Key:
[1] = target: T1, SMT3 (Saccharomyces cerevisiae, UniProt Q12306); test: qB2H v1 fluorescence, SMT3 (SUMO) vs SUMO-interacting motifs; format: cell-based, Escherichia coli; details: BL21(DE3), qB2H v1, cI-SMT3 2-97, IPTG(20µM)
T1 construct: SMT3; UNIPROT: Q12306; 2-97; Saccharomyces cerevisiae; expressed in transfected cells; host or cells: E. coli BL21(DE3) transformed with VN594 plus a pBRα rpoA-fusion plasmid
Description: Precultures of untransformed (for intrinsic fluorescence evaluation) and transformed SB39 cells were diluted (3 μl into 300 μl of fresh medium) in 2-ml microtubes and grown in ThermoMixer C (Eppendorf; 37 °C at 900 rpm) for 2 h. Cultures with an OD600 of approximately 0.5 were then mixed with 100 μl of the same medium containing 4× inducer concentration. […] The induced cultures were grown overnight at 18 °C, diluted (1 μl) in freshly filtered (0.22 μm) phosphate-buffered saline buffer (1 ml per OD unit), and analyzed using guava easyCyte HT (488-nm blue laser). The gating for event analysis was set to minimize background noise (fewer than 100 gated events per 10 μl of sterile phosphate-buffered saline). Ten thousand events were collected per culture, and the MFI was recorded. […] Their MFI were used to normalize those of other conditions (x) using the following equation [Eq. (1)]: Normalized MFIx=MFIx−MFIlow/MFIhigh−MFIlow × 100 (1)
MFI(x) represents the MFI of a given condition or culture. […] Each experiment was conducted in 3 independent assays performed on different days. Figures were generated using Python notebooks in conjunction with Matplotlib.
Interactions involving distinct protein domains and folding variants were assessed using qB2H systems v1, v2, and v3. […] The x-axis labels indicate the qB2H version and the interacting partners, formatted as follows: (qB2H version) Partner_A–Partner_B (inducers). Anhydrotetracycline (aTc) concentrations are reported in ng/mL; IPTG concentrations are given in µM. All experimental conditions, acronyms, and constructs are defined in the Methods section.

[2] = test system: TNFa; test: qB2H v3 fluorescence, TNFa vs VHH/ScFv; format: cell-based, Homo sapiens; details: SB39, v3, cI-TNFa 77-233, aTc(200ng/mL) + IPTG(1000µM)
Description: (§1) Precultures of untransformed (for intrinsic fluorescence evaluation) and transformed SB39 cells were diluted (3 μl into 300 μl of fresh medium) in 2-ml microtubes and grown in ThermoMixer C (Eppendorf; 37 °C at 900 rpm) for 2 h. Cultures with an OD600 of approximately 0.5 were then mixed with 100 μl of the same medium containing 4× inducer concentration. Final inducer concentrations, chosen on the basis of maximal signal output, were 20 μM IPTG for v1 or v2 and 200 μM IPTG plus […] for v3 series. The induced cultures were grown overnight at 18 °C, diluted (1 μl) in freshly filtered (0.22 μm) phosphate-buffered saline buffer (1 ml per OD unit), and analyzed using guava easyCyte HT (488-nm blue laser). The gating for event analysis was set to minimize background noise (fewer than 100 gated events per 10 μl of sterile phosphate-buffered saline). Ten thousand events were collected per culture, and the MFI was recorded. […]
(§2) MFI(x) represents the MFI of a given condition or culture. MFI(low) corresponds to the fluorescence produced by SB39 cells cotransformed with VN519 and VN550, indicating no detectable interaction (Kd > 100,000 nM). […]
Interactions involving distinct protein domains and folding variants were assessed using qB2H systems v1, v2, and v3. […]

[3] = test system: ASF1BN; test: qB2H v4 binder selection, short-term batch, kanamycin, NGS enrichment/frequency; format: cell-based, bacterial; details: 4 to 5 h, SB39 v4, TF/T0 frequency ratio
Description: (§3) Design and selection of binders
(§4) An AI pipeline integrating RFdiffusion, ProteinMPNN, and AlphaFold2 (detailed in Supplementary Methods) was implemented to design N-terminal extensions of ip4_mutG, a weak ASF1 binder (Kd ~10 μM). Briefly, N-terminal extensions of 11 to 16 amino acids were fused to linkers (GSEAK, GSEK, or GSK) and appended to the ip4_mutG coding sequence. Rational designs and controls (flexible N-terminal extensions) were incorporated into the library, ordered as oligonucleotide pools (oPools, IDT), and cloned into the v4 series plasmid for transformation into SB39 cells. Library selection was performed in 2 experimental setups: (a) short batch selection and (b) prolonged continuous selection in a turbidostat (Chi.Bio [61]).
(§5) In the batch selection, induced cultures diluted to OD600 = 0.05 were exposed to kanamycin concentrations ranging from 0 to 348 μg/ml. […] Cultures were maintained at OD600 0.4 for 21 or 29 h, followed by an additional 3-h growth period after sample collection, totaling 24 and 32 h.
(§6) Plasmids extracted from samples taken before (T0) and after selection (TF) were sequenced by NGS (Illumina), and reads corresponding to expected sequences were quantified to assess relative frequencies and enrichment.
Short selection runs (batches)
Glycerol stocks of mixed libraries were inoculated at approximately 18:00 in fresh media and grown overnight at 30 °C, to slow growth kinetics and reduce saturation-related stress (by decreasing the time spent in stationary phase). The grown cultures were diluted to OD600 = 0.05 in 150 mL of LB supplemented with 17 µg/mL chloramphenicol, 200 µM IPTG, 200 ng/mL aTc, and incubated (200 rpm, 37 °C) for 2 h (OD600 ~ 0.5). […] Assuming that sufficiently strong selection pressure can impact population growth over a short term (few hours), only cultures with OD at least 0.5 absorbance units lower than the OD of the culture without kanamycin after 4.5–5 h were retained for NGS analysis (TF-[ X µg/mL kan] samples).
(§7) NGS sample preparation and analysis
(§8) NGS samples were prepared by PCR using primer OR2895 with one of primers from OR2890– OR2894: 98 °C for 1 min; 26 cycles of (98 °C for 15 s.; 65 °C for 15 s.; 72 °C for 1 min) and 72 °C for 3 min.
(§9) FASTQ-formatted assembled paired-end reads corresponding to the expected sequences were counted and their frequencies calculated. Enrichment of each variant was obtained by the TF/T0 frequency ratio.

[4] = test system: ASF1BN; test: qB2H v4 binder selection, long-term turbidostat (Chi.Bio), kanamycin 209 μg/ml, NGS enrichment/frequency; format: cell-based; details: kanamycin 209 μg/ml (120% MIC50), TF/T0 frequency ratio
Description: as §3, §4, §5, §6
Long selection runs (continuous cultures under stable cell density—turbidostat)
Culture conditions before kanamycin-based selection were identical to those in “short selection runs in batches” including T0 sample preparation. However, the turbidostat function of Chi.Bio system^11,12 was used to implement a continuous culture over extended selection periods. […] Samples (10 mL) were recovered at 21 and 29 h after selection initiation and cultured for an additional 3 hours (final OD ~ 2.5) totalizing, respectively, 24 (TF_24h) or 32 hours (TF_32h) selection.
as §7, §8, §9

[5] = test system: ASF1BN; test: qB2H fluorescent reporter (eGFP MFI, flow cytometry or colonies), ASF1BN, v1 to v3; format: cell-based, human; details: relative to ip3_mut3A and ip1
Description: qB2H experiments using a fluorescent reporter
as §1, §2

[6] = Batch_Kan348, kanamycin 348 μg/ml (200% MIC50 of ASF1–ip3)
[7] = Batch_Kan261, kanamycin 261 μg/ml (150% MIC50 of ASF1–ip3)
[8] = ChiBio_T24_Kan209, turbidostat 24 h
[9] = ChiBio_T32_Kan209, turbidostat 32 h

T1 sequence (Q12306 2-97): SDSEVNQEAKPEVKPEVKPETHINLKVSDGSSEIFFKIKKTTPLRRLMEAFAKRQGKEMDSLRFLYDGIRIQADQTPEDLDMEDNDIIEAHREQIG

## CDC48 431-450: CDC48 P25694 region 431-450, SUMO-interacting motif peptide (QQIREKMDLIDLDEDEIDAE; UniProt P25694 431-450, looked up, fragment)
[1]
  Norm. MFI: 9.91%

## ScFv (D2E7): Adalimumab ScFV; WIPO: WO2011084714A2
[2]
  Norm. MFI: 8.76%

## Srs2_SIM: SUMO-interacting motif, P12954 1164-1174, Saccharomyces cerevisiae (KLNNGEIIVID; UniProt P12954 1164-1174, looked up, fragment)
[1]
  Norm. MFI: 62.95%

## KPEAAASAAAEQAHFAALLAKLPGSKWARLARRTAGAGGVTLNGAG [AI design n°225 with GSK linker]
[3]; [6]
  enrichment: 4.18E+00

## KPEAAASDAAARFAAALAALPGSKWARLARRTAGAGGVTLNGAG [AI design n°37 with GSK linker]
[3]; [7]
  enrichment: 4.90E+00

## KPEAAASSAAERFAAALAALPGSKWARLARRTAGAGGVTLNGAG [AI design n°47 with GSK linker; third of batch Kan[348]]
[3]; [6]
  enrichment: 4.66E+00

## KPEAAASAEEEEAAFAALLAALPGSKWARLARRTAGAGGVTLNGAG [AI design n°233 with GSK linker]
[4]; [8]
  enrichment: 1.42E+00
[4]; [9]
  enrichment: 2.04E+00

## CDC48 72-91: CDC48 P25694 region 72-91, SUMO-interacting motif peptide (KKRKDTVLIVLIDDELEDGA; UniProt P25694 72-91, looked up, fragment)
[1]
  Norm. MFI: 46.16%

## KPEAAASAAEEQAAFDALLAALPGSKWARLARRTAGAGGVTLNGAG [AI design n°261 with GSK linker; third of turbidostat T32_Kan[209]]
[4]; [8]
  enrichment: 6.25E+00
[4]; [9]
  enrichment: 1.11E+01

## KPEAAASAEAEAARFAALLAALPGSKWARLARRTAGAGGVTLNGAG [AI design n°220 with GSK linker]
[4]; [8]
  enrichment: 4.84E-02
[4]; [9]
  enrichment: 5.25E-02

## KPEAAASAEAERWAQALAALPGSKWARLARRTAGAGGVTLNGAG [AI design n°32 with GSK linker]
[3]; [7]
  enrichment: 4.25E+00

## KPEAAASAAAEQAAFAALLAALPGSKWARLARRTAGAGGVTLNGAG [AI design n°217 with GSK linker]
[3]; [7]
  enrichment: 3.15E+00

## WARLARRTAGAGGVTLNGAG [ip4_mutG]
[5]
  qB2H signal: between ip3_mut3A and ip1

## AAEEAARFAALLAALP-GSK-ip4_mutG [T32_Kan[209]_top2, AI design n°218 with GSK linker]
[4]; [8]
  enrichment: 7.72E+01
[4]; [9]
  enrichment: 8.39E+01

## KPEAAASMSSHQLWKQWGGGSEKWARLARRTAGAGGVTLNGAG [Rational design n°84 with GSEK linker]
[3]; [7]
  enrichment: 2.46E+00

## KPEAAASAEEEQARFAALLAALPGSKWARLARRTAGAGGVTLNGAG [AI design n°250 with GSK linker]
[3]; [6]
  enrichment: 4.27E+00
